Where a SMILES comes first, the peptide text is derived from it. The star is where a group is joined. Cbz = O=C(OCc1ccccc1)*
Tests used:
Assay type in all cases: cell-based
AvBD9 [1] = test: AvBD9 gene expression in chicken peripheral blood mononuclear cells (PBMCs) (real-time RT-PCR); conditions: 1 h inhibitor pretreatment, then 10 μM quercetin 24 h
AvBD9 [2] = test: AvBD9 gene expression in chicken HD11 macrophage cells (real-time RT-PCR); conditions: for Induction of AvBD9 gene expression: compound alone, different concentrations; for Effect of pathway inhibitor on lactose-induced AvBD9 expression: 1 h inhibitor pretreatment, then 0.2 M lactose 24 h; for Synergy with butyrate in AvBD9 induction: 2 mM butyrate with 0.2 M sugar, 12 h; for Induction of AvBD9 gene expression by sugars: 0.2 M, up to 48 h; for Efficacy of AvBD9 induction compared with butyrate: 24 h stimulation
Description: (§1) Chicken HD11 macrophage cell line was obtained from USDA-Agricultural Research Services (ARS), and chicken HTC macrophage cell line was secured from USDA-ARS. Both HD11 and HTC macrophage cells were propagated in RPMI 1640 containing 10% fetal bovine serum (FBS), 100 μg/ml streptomycin, and 100 U/ml penicillin. Peripheral blood mononuclear cells (PBMCs) were isolated from EDTA-anticoagulated chicken blood by gradient centrifugation with Histopaque 1077 (Sigma) following manufacturer's instructions. Briefly, chicken blood was overlaid onto Histopaque 1077 (Sigma) at 1:1 ratio, and centrifuged at 400×g for 30 min. Interphase containing PBMCs was aspirated and washed 3 times with PBS at 250×g for 10 min. Cell pellet was re-suspended with RPMI 1640, supplemented with 10% FBS, 100 μg/ml streptomycin, 100 U/ml penicillin, and 20 mM HEPES. After being seeded overnight at 2×10^6/well in 6-well tissue culture plates, cells were treated with different concentrations of chemicals. For signaling studies, cells were pre-treated with different signaling agonists or inhibitors for 1 h, followed by stimulation with sodium butyrate or its structural analogs for another 24 h. Cells were then lysed in RNAzol (Molecular Research Center, Cincinnati, Ohio) for RNA extraction.
(§2) Total RNA was extracted from chicken cells and tissues using RNAzol RT (Molecular Research Center) and quantitated using Nanodrop 1000 (Nanodrop Products, Wilmington, Del.). RNA (0.3 μg) was reverse transcribed in 4-μl reactions using Maxima First Strand cDNA Synthesis Kit (Thermo Fisher Scientific, Pittsburgh, Pa.) according to the manufacturer's instructions. The cDNA was then diluted 10 times with RNase-free water prior to real-time PCR analysis of AvBD9 and GAPDH as were described previously. The primers used for AvBD9 primers were […] (SEQ ID NO: 1, forward) and […] (SEQ ID NO: 2, reverse), whereas the primers for chicken glyceraldehyde-3-phosphate dehydrogenase (GAPDH) were […] (SEQ ID NO: 3, forward) and […] (SEQ ID NO: 4, reverse). QuantiTect SYBR Green PCR Kit (Qiagen, Valencia, Calif.) was used in 10 μl reactions with 4 and 1 μl of diluted cDNA for AvBD9 and GAPDH, respectively. Real-time PCR was performed with an initial activation at 95° C. for 10 min, followed by 40 cycles at 94° C. for 15 sec, 55° C. for 20 sec and 72° C. for 30 sec. Melting curve analysis was carried out to confirm the specificity of PCR amplification. Relative fold change in the AvBD9 gene expression was calculated using the ΔΔCt method normalized against the GAPDH levels.

AvBD9 [3] = test: AvBD9 gene expression in chicken peripheral blood mononuclear cells (PBMCs) (real-time RT-PCR); conditions: for Effect of pathway inhibitor on butyrate-induced AvBD9 expression: 1 h inhibitor pretreatment, then 2 mM sodium butyrate 24 h; for Effect on AvBD9 induction, compound alone: without butyrate; for AvBD9 gene expression, maximum fold increase, compound alone: 50 to 250 μM, dose-dependent
Description: as §1, §2

AvBD9 [4] = test: AvBD9 gene expression in chicken HTC macrophage cells (real-time RT-PCR)
Description: For signaling studies, cells were pre-treated with different signaling agonists or inhibitors for 1 h, followed by stimulation with sodium butyrate or its structural analogs for another 24 h.
(§3) The cDNA was then diluted 10 times with RNase-free water prior to real-time PCR analysis of AvBD9 and GAPDH as were described previously. The primers used for AvBD9 primers were […] (SEQ ID NO: 1, forward) and […] (SEQ ID NO: 2, reverse), whereas the primers for chicken glyceraldehyde-3-phosphate dehydrogenase (GAPDH) were […] (SEQ ID NO: 3, forward) and […] (SEQ ID NO: 4, reverse). QuantiTect SYBR Green PCR Kit (Qiagen, Valencia, Calif.) was used in 10 μl reactions with 4 and 1 μl of diluted cDNA for AvBD9 and GAPDH, respectively.

AvBD9 [5] = test: AvBD9 gene expression in chicken jejunal explants (real-time RT-PCR); conditions: 2 mM butyrate and/or 0.1 M lactose, 24 h
Description: A segment of chicken jejunum was harvested from 1- to 2-week-old broiler chickens, washed thoroughly in cold PBS containing 100 μg/ml of gentamicin, 100 U/ml penicillin, and 100 μg/ml streptomycin, and then cut into a series of 0.5-cm-long segments. Jejunal segments were placed individually in 6-well plates and cultured in 4 ml RPMI 1640 containing 10% FBS, 20 mM HEPES, 100 U/ml penicillin, 100 μg/ml streptomycin, and 100 μg/ml gentamicin. […] Jejunal segments were homogenized in RNAzol RT for RNA extraction.
as §3

acetyl-histone 4 (Ac-H4) = test: Histone 4 acetylation in chicken HD11 cells (immunoblotting, Ac-H4); conditions: 2 mM butyrate and/or 0.2 M lactose, 6 h
Description: After stimulation with various compounds, chicken HD11 cells were washed with PBS and lysed in the RIPA lysis buffer (Santa Cruz Biotechnology, Dallas, Tex.). Protein concentration was measured by the Bradford Assay (Bio-Rad, Hercules, Calif.). For the determination of histone 4 acetylation levels, 20 μg of proteins was separated by 12.5% SDS-PAGE gel and then transferred to a PVDF membrane. After overnight blocking in the blocking buffer at 4° C., the membrane was incubated with a primary rabbit antibody against acetyl-histone 4 (Ac-H4) (Cell Signaling, #8647) in the blocking buffer for 1 h at room temperature. After three washes, the membrane was incubated with an alkaline phosphatase-conjugated goat anti-rabbit IgG antibody (Sigma-Aldrich, St. Louis, Mo.) for 45 min at room temperature. Another membrane was prepared in parallel, but incubated with a rabbit antibody against β-Actin (#A2103) to reveal a similar amount of protein loading. The signaling was visualized by incubation with the ECL reagent (Santa Cruz Biotechnology).

For `S=C(S)N1CCCC1` [PDTC], the “Effect of pathway inhibitor on quercetin-mediated AvBD9 expression” value (AvBD9 [1]) was “did not show much effect”.

In the case of `O=C(O)CCc1ccccc1` [hydrocinnamic acid, Hydrocinnamic acid], the “Induction of AvBD9 gene expression” value (AvBD9 [2]; 24 h) is reported as “dose-dependently induced”.

`COc1cccc(-c2cc(=O)c3ccccc3o2)c1N` [PD98059, reference compound] was tested, and the “Effect of pathway inhibitor on butyrate-induced AvBD9 expression” value (AvBD9 [3]) was “strong synergistic AvBD9 induction” and the “Effect of pathway inhibitor on lactose-induced AvBD9 expression” value (AvBD9 [2]) was “synergized substantially”.

For `Nc1ncnc2c1ncn2C1CCCO1` (centres unmarked) [SQ22536, reference compound], the “Effect of pathway inhibitor on lactose-induced AvBD9 expression” value (AvBD9 [2]) was “no influence”.

For `CCCCCCCCCCCCCCCc1cccc(O)c1C(=O)O` [anacardic acid], the “Effect on AvBD9 induction, compound alone” value (AvBD9 [3]) was “modest effect”.

With `O=C[C@H](O)[C@@H](O)[C@@H](O)[C@H](O)CO` [galactose] the “Synergy with butyrate in AvBD9 induction” value (AvBD9 [2]) was “clear synergy” and the “Induction of AvBD9 gene expression by sugars” value (“Induction … by sugars” below) (AvBD9 [2]) was “stimulated AvBD9 gene expression in a time-dependent manner”.

In the case of `C=C(C)[C@@H](CC=C(C)C)C[C@@]12C[C@@H](CC=C(C)C)C(C)(C)[C@@](CC=C(C)C)(C(=O)C(C(=O)c3ccc(O)c(O)c3)=C1O)C2=O` [garcinol], the “AvBD9 induction, peak fold increase, compound alone” value (AvBD9 [3]; garcinol without butyrate) is reported as “approximately 7 fold”.

With `O=c1c(O)c(-c2ccc(O)c(O)c2)oc2cc(O)cc(O)c12` [quercetin] the “Reduction of AvBD9 induction at 48 h relative to 24 h” value (AvBD9 [4]; 40 μM quercetin) was 210 fold, the “AvBD9 expression, fold increase at peak” value (AvBD9 [4]; 40 μM quercetin, 24 h) was “approximately 500 fold” and the “Concentration giving peak AvBD9 response” value (AvBD9 [4]; quercetin alone, 24 h) was 40 µM. For the same compound, the “Induction of AvBD9 gene expression (dose dependence)” value (AvBD9 [4]; quercetin alone, 24 h) was “dose-dependent induction”, the “AvBD9 expression, fold increase” value (AvBD9 [3]; 40 μM quercetin alone, 24 h) was “approximately 6,500 fold” and the “Induction of AvBD9 (dose dependence)” value (AvBD9 [3]; quercetin alone, 24 h) was “dose-dependently induced”.

With `CCCC(CCC)C(=O)[O-].[Na+]` [sodium valproate, reference compound] the “Induction of AvBD9 gene expression” value (AvBD9 [2]; 24 h) was “dose-dependent stimulation”.

For `CCCC(=O)OCc1ccccc1` [benzyl butyrate, Benzyl butyrate], the “Efficacy of AvBD9 induction compared with butyrate” value (shortened to “Efficacy … compared with butyrate”) (AvBD9 [2]) was “comparable efficacy to butyrate” and the “Induction of AvBD9 gene expression” value (AvBD9 [2]; 24 h) was “dose-dependently induced”.

`O=C(CO)[C@@H](O)[C@H](O)[C@H](O)CO` [fructose] was tested, and the “Induction … by sugars” value (AvBD9 [2]) was “stimulated AvBD9 gene expression in a time-dependent manner”.

In the case of `O=C(O)c1cccnc1Nc1cccc(C(F)(F)F)c1` [niflumic acid], the “AvBD9 gene expression, maximum fold increase, compound alone” value (AvBD9 [3]) is reported as ~14,000 fold.

In the case of `CCCC(=O)Nc1ncnc2c1ncn2[C@@H]1O[C@@H]2COP(=O)(O)O[C@H]2[C@H]1OC(=O)CCC` [dibutyryl cAMP, reference compound], the “Efficacy … compared with butyrate” value (AvBD9 [2]) is reported as “comparable efficacy to butyrate” and the “Induction of AvBD9 gene expression” value (AvBD9 [2]; 24 h) is reported as “dose-dependently induced”.

For `CCCC(=O)OC/C=C/c1ccccc1` [trans-cinnamyl butyrate], the “Induction of AvBD9 gene expression” value (AvBD9 [2]; 24 h) was “dose-dependently induced”.

With `CS(=O)(=O)Nc1ccc([N+](=O)[O-])cc1Oc1ccccc1` [nimesulide] the “AvBD9 gene expression, maximum fold increase, compound alone” value (AvBD9 [3]) was “approximately 70 fold”.

With `O=C(CCCCCCC(=O)Nc1ccccc1)NO` [SAHA, suberoylanilide hydroxamic acid, reference compound] the “Induction of AvBD9 gene expression” value (AvBD9 [2]; 24 h) was “dose-dependent stimulation”.

In the case of `CC(/C=C/C(=O)NO)=C\[C@@H](C)C(=O)c1ccc(N(C)C)cc1` [trichistatin A, reference compound], the “Induction of AvBD9 gene expression” value (AvBD9 [2]; 24 h) is reported as “dose-dependent stimulation”.

For `C[C@H]1O[C@@H](n2cnc3c(N)ncnc32)C[C@@H]1O` [DDA, 2′-5′-dideoxyadenosine], the “Effect of pathway inhibitor on butyrate-induced AvBD9 expression” value (AvBD9 [3]) was “strikingly strong, dose-dependent increase”.

In the case of `OC[C@H]1O[C@@H](O[C@H]2[C@H](O)[C@@H](O)C(O)O[C@@H]2CO)[C@H](O)[C@@H](O)[C@H]1O` (some centres unmarked) [lactose], the “AvBD9 induction, maximum fold” value (AvBD9 [2]; 0.2 M lactose alone, 6 h) is reported as 350 fold, the “Induction … by sugars” value (AvBD9 [2]) is reported as “stimulated AvBD9 gene expression in a time-dependent manner” and the “AvBD9 induction, fold” value (AvBD9 [5]) is reported as 15 fold. The “Histone 4 acetylation” value (acetyl-histone 4 (Ac-H4)) was “no impact”.

In the case of `OC[C@@H](O)[C@@H](O)[C@H](O)[C@H](O)CO` [mannitol], the “Synergy with butyrate in AvBD9 induction” value (AvBD9 [2]) is reported as “comparably synergy”.

`C[S+]([O-])c1ccc(-c2nc(-c3ccncc3)c(-c3ccc(F)cc3)[nH]2)cc1` (centres unmarked) [SB203580, reference compound] was tested, and the “Effect of pathway inhibitor on butyrate-induced AvBD9 expression” value (AvBD9 [3]) was “substantial, but not complete reduction” and the “Effect of pathway inhibitor on lactose-induced AvBD9 expression” value (AvBD9 [2]) was “no influence”.

For `OC[C@H]1O[C@H](O[C@H]2O[C@H](CO)[C@@H](O)[C@H](O)[C@H]2O)[C@H](O)[C@@H](O)[C@@H]1O` [trehalose], the “Synergy with butyrate in AvBD9 induction” value (AvBD9 [2]) was “clear synergy”.

With `CCCC(=O)[O-].[Na+]` [butyrate, Sodium butyrate] the “AvBD9 induction, peak fold” value (AvBD9 [2]; 2 mM butyrate alone, 24 h) was “approximately 1,750 fold”, the “AvBD9 induction, fold” value (AvBD9 [5]) was 100 fold and the “Histone 4 acetylation” value (acetyl-histone 4 (Ac-H4)) was “minimum histone 4 acetylation”.

For `Oc1ccc(C=Cc2cc(O)cc(O)c2)cc1` [resveratrol], the “Effect on AvBD9 induction, compound alone” value (AvBD9 [3]) was “modest effect”.

In the case of `CCCC(=O)OCC(COC(=O)CCC)OC(=O)CCC` [glyceryl tributyrate, Glyceryl tributyrate], the “Efficacy … compared with butyrate” value (AvBD9 [2]) is reported as “comparable efficacy to butyrate” and the “Induction of AvBD9 gene expression” value (AvBD9 [2]; 24 h) is reported as “dose-dependently induced”.

For `CN(C)c1ccc(C(=O)NCCCCCC(=O)NO)cc1` [CAY10398, reference compound], the “Induction of AvBD9 gene expression” value (AvBD9 [2]; 24 h) was “dose-dependent stimulation”.

In the case of `CC(C)C[C@@H](C=O)NC(=O)[C@H](CC(C)C)NC(=O)[C@H](CC(C)C)NC(=O)OCc1ccccc1` [MG132] (Cbz-Leu-Leu-Leu-aldehyde), the “Effect of pathway inhibitor on butyrate-induced AvBD9 expression” value (AvBD9 [3]) is reported as “nearly complete abolishment”.

For `Nc1ccc2ncnc(NCCc3ccc(Oc4ccccc4)cc3)c2c1` [QNZ, reference compound], the “Effect of pathway inhibitor on lactose-induced AvBD9 expression” value (AvBD9 [2]) was “no influence”.

Source: patent publication US20190054057A1, “IMMUNE BOOSTING DIETARY COMPOUNDS FOR DISEASE CONTROL AND PREVENTION” (THE BOARD OF REGENTS FOR OKLAHOMA STATE UNIVERSITY OFFICE …, priority 2016, published 2019)
